Laboratory results as given in patent US9034866B2 (Genentech, Inc., priority 2012, dated 2015).
Like-named read-outs stand apart in the source and are kept apart here.

Key:
[1] = system: REL-A (p65) nuclear translocation in HeLa cells; test: REL-A nuclear translocation assay (classical NF-kB signaling), high content imaging; assay type: cell-based; conditions: Homo sapiens, compounds 4.5 hours, then 10 ng/mL TNF-α for 30 minutes, read-out: REL-A HeLa Transloc Assay (IC50)
Description: (§1) (2) A second set of cell assay are used to define the selectivity of NIK inhibitors toward inhibition of classical vs. non-classical NF-kB signaling and rely on quantification of the nuclear translocation of p52 (NF-kB2) and REL-A (p65) using high content cellular imaging. For the p52 (non-classical NF-kB signaling) nuclear translocation assay, HeLa cells are treated with different concentrations of compounds (0.2% DMSO final) in medium containing 10% fetal bovine serum and then stimulated with 100 ng/mL, of an anti-lymphotoxin beta receptor antibody (R&D Systems) for 5 hours. In the REL-A nuclear translocation assay, HeLa cells are incubated with compounds (0.2% DMSO final) for 4.5 hours in medium containing 10% fetal bovine serum before stimulating them with 10 ng/mL tumor necrosis factor (TNF)-α (R&D Systems) for 30 minutes. Cells are fixed with 4% paraformaldehyde, permeabilized by adding 0.1% Triton X-100 in phosphate buffered saline, and then are incubated with either 2 ug/mL anti-p52 antibody (Millipore) or 400 ng/mL anti-REL-A (p65) antibody (Santa Cruz Biotechnology). Finally, the cells are incubated with an Alexa488-labeled secondary antibody (Invitrogen) and DRAQ5 DNA stain (Biostatus). Imaging is carried out using an Opera reader (Perkin Elmer) and data are analyzed with the aid of Acapella software (Perkin Elmer). The p52 or REL-A translocation into the nucleus is quantified by the ratio of the nuclear to cytoplasmic signal intensity. […] The compounds in listed in Table 1 have the corresponding inhibitory value (IC50 in micromolar) for NIK p52 Translocation Assay as set forth in Table 2.
The compounds in listed in Table 1 has the corresponding inhibitory value (IC50 in micromolar) for NIK RelA Translocation Assay as set forth in Table 2.

[2] = system: p52 (NF-kB2) nuclear translocation in HeLa cells; test: p52 nuclear translocation assay (non-classical NF-kB signaling), high content imaging; assay type: cell-based; conditions: 100 ng/mL anti-lymphotoxin beta receptor antibody for 5 hours, read-out: p52 HeLa Transloc Assay (IC50)
Description: as §1

[3] = target: nuclear factor-kappa B (NF-kB)-inducing kinase (NIK) (Homo sapiens (Human), UniProt Q99558); test: NIK Enzyme Inhibition Assay (Transcreener ADP fluorescence polarization); assay type: biochemical; conditions: purified NIK 0.2-1 nM, 10 uM ATP, Morrison's quadratic equation; read-out: NIK ADP-FP (Ki uM)
Summary of the method: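 Baculovirus/insect-cell-expressed NIK (0.2-1 nM) incubated with compounds 1-3.5 h at 10 uM ATP. Buffer: 50 mM HEPES pH 7.2, 10 mM MgCl2, 2 mM DTT, 1% DMSO. ADP detected by Transcreener fluorescence polarization (ADP antibody, AlexaFluor 633 tracer) after EDTA quench.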

Chain of nuclear factor-kappa B (NF-kB)-inducing kinase (NIK) (Q99558 whole entry): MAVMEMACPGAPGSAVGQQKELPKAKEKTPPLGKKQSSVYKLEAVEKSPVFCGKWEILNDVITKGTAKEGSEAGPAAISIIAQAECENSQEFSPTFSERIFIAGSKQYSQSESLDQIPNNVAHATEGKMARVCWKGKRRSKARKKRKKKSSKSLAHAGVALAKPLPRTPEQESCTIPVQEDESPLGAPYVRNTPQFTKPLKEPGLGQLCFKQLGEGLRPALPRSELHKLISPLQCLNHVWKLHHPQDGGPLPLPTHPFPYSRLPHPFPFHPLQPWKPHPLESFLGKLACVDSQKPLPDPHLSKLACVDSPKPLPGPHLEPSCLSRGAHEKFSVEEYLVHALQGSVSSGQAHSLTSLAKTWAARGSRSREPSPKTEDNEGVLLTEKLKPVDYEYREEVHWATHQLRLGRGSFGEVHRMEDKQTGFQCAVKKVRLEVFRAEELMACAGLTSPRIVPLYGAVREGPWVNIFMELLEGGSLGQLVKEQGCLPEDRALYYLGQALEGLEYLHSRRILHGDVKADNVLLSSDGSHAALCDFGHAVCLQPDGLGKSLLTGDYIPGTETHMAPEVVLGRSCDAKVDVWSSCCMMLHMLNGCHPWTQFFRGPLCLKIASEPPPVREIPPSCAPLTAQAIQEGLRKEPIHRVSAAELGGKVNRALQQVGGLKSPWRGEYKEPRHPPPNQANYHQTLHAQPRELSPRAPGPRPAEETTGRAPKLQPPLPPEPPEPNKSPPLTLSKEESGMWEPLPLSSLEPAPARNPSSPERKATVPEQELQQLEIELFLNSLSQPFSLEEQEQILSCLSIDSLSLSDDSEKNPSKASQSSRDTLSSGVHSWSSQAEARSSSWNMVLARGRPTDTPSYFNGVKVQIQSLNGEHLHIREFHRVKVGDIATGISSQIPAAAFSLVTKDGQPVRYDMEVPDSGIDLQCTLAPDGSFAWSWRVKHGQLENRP

IC50 ([1]; HeLa) | Compound | IC50 ([2]; Homo sapiens, HeLa, 5 h) | further results
> 20000 nM | Cc1nc([C@](C)(O)C#Cc2cc3c(cc2F)OC[C@@H](N(C)C)c2sc(C(N)=O)nc2-3)no1 (racemic) [Example 256] | 2900 nM | IC50 [2]: 2000 nM
 | CC(O)(C#Cc1cc2c(cc1F)C1CC(C1)n1cc(C(N)=O)nc1-2)CF (racemic) | 424 nM | Ki [3]: 0.0031 µM
> 20000 nM | CN1CC[C@@](O)(C#Cc2ccc3c(c2)-c2nc(C(N)=O)sc2C(F)(F)CO3)C1=O [Example 406, 10-[(3R)-3-hydroxy-3-(5-methylisoxazol-3-yl)but-1-ynyl]-N3,N3-dimethyl-5,6,7,12-tetrahydro-5,7-methanobenzo[c]imidazo[1,2-a]azepine-2,3-dicarboxamide] | 76.1 nM | 
 | CNC(=O)c1c(C(N)=O)nc2n1C1CC(C1)c1cc(F)c(C#C[C@@](C)(O)c3cc(C)on3)cc1-2 | 683 nM | Ki [3]: 0.008 µM
> 20000 nM | CNC(=O)c1c(C(N)=O)nc2n1C1CC(C1)c1ccc(C#CC3(O)CCC3)cc1-2 [Example 361, 10-[2-(1-hydroxycyclobutyl)ethynyl]-N3-methyl-5,6,7,12-tetrahydro-5,7-meth-anobenzo[c]imidazo[1,2-a]azepine-2,3-dicarboxamide] | 409 nM | 
> 20000 nM | CN1CC[C@@](O)(C#Cc2cc3c(cc2F)OCCn2c-3nc(C(N)=O)c2C2CC2)C1=O [Example 418, 9-fluoro-10-(3-hydroxy-3-methyl-but-1-ynyl)-3-[[2-methoxyethyl(methyl)amino]methyl]-5,6,7,12-tetrahydro-5,7-methanobenzo[c]imidazo[1,2-a]azepine-2-carboxamide] | 515 nM | 
> 20000 nM | CN1CC[C@@](O)(C#Cc2cc3c(cc2F)C2CC(C2)n2cc(C(N)=O)nc2-3)C1=O [Example 300] | 3000 nM | 
> 20000 nM | CN1CC[C@@](O)(C#Cc2ccc3c(c2)-n2nc(C(N)=O)cc2C2(CC2)CO3)C1=O [Example 460] | 252 nM | 
> 20000 nM | CN1CC[C@@](O)(C#Cc2cc3c(cc2F)C2CC(C2)c2c-3nc(C(N)=O)n2C)C1=O (mixture of isomers) [Example 381, (±)-10-[3-hydroxy-3-(2-pyridyl)but-1-ynyl]-5,6,7,12-tetrahydro-5,7 methanobenzo[c]imidazo[1,2-a]azepine-2-carboxamide] | 285 nM | 
> 20000 nM | CC(C)(O)C#Cc1cc2c(cc1F)C1CC(C1)n1c-2nc(C(N)=O)c1C1CC1 [Example 195, 3-cyclopropyl-9-fluoro-10-(3-hydroxy-3-methyl-but-1-ynyl)-5,6,7,12-tetrahydro-5,7-methanobenzo[c]imidazo[1,2-a]azepine-2-carboxamide] | 2400 nM | 
> 20000 nM | Cc1nc([C@](C)(O)C#Cc2ccc3c(c2)-c2nc(C(N)=O)sc2C2CC3C2)no1 [Example 450, (R)-9-(3-hydroxy-3-(5-methyl-1,2,4-oxa-diazol-3-yl)but-1-yn-1-yl)-5,6-dihydro-4H-4,6-methanobenzo[6,7]cyclo-hepta[1,2-d]thiazole-2-carboxamide] | 459 nM | 
> 20000 nM | Cc1cc([C@](C)(O)C#Cc2ccc3c(c2)-c2nc(C(N)=O)c(Cn4c(C)nc5ccccc54)n2CCO3)no1 [Example 415, 9-fluoro-10-(3-hydroxy-3-methyl-but-1-ynyl)-3-[(2-methoxyethylamino)methyl]-5,6,7,12-tetrahydro-5,7-methanobenzo[c]imidazo[1,2-a]azepine-2-carboxamide] | 979 nM | 
 | Cc1cc([C@](C)(O)C#Cc2cc3c(cc2F)C2CC(C2)n2c-3nc(C(N)=O)c2CNC(=O)C2CC2)no1 [Example 363] |  | IC50 [1]: > 20000 nM; IC50 ([2]; Homo sapiens): 660 nM
> 20000 nM | Cc1nc([C@](C)(O)C#Cc2ccc3c(c2)-c2nc(C(N)=O)c(Cc4ccnn4C)n2C2CC3C2)no1 [Example 260, 10-[(3R)-3-hydroxy-3-(5-methyl-1,2,4-oxadiazol-3-yl)but-1-ynyl]-3-[(2-methyl-pyrazol-3-yl)methyl]-5,6,7,12-tetrahydro-5,7-methanobenzo[c]imidazo[1,2-a]aze-pine-2-carboxamide] | 4800 nM | 
 | CNC(=O)c1c(C(N)=O)nc2n1CCOc1cc(F)c(C#CC(C)(O)CF)cc1-2 (stereo not shown) [Example 109] |  | IC50 ([2]; Homo sapiens): 272 nM
> 20000 nM | NC(=O)c1nc2n(c1C1CC1)C1CC(C1)c1cc(F)c(C#C[C@]3(O)CCNC3=O)cc1-2 [Example 338, 3-cyclopropyl-9-fluoro-10-[2-[(3R)-3-hy-droxy-2-oxo-pyrrolidin-3-yl]ethynyl]-5,6,7,12-tetrahydro-5,7-methano-benzo[c]imidazo[1,2-a]azepine-2-carboxamide] | 3000 nM | 
> 20000 nM | CN1CC[C@@](O)(C#Cc2ccc3c(c2)-c2nc(C(N)=O)c(C(=O)NC4CCOCC4)n2CCO3)C1=O [Example 422, 9-fluoro-10-(3-hydroxy-3-methyl-but-1-ynyl)-3-(1-hydroxy-1-methyl-ethyl)-5,6,7,12-tetrahydro-5,7-methanobenzo[c]imidazo[1,2-a]azepine-2-carboxamide] | 406 nM | 
20000 nM | CN1CC[C@@](O)(C#Cc2ccc3c(c2)-c2nc(C(N)=O)c(Cc4ccccc4Cl)n2C2CC3C2)C1=O [Example 308] | 1500 nM | 

IC50 ([1]; HeLa) | Compound | IC50 ([2]; Homo sapiens, HeLa, 5 h) | further results
> 20000 nM | CNC(=O)c1c(C(N)=O)nc2n1C1CC(C1)c1cc(F)c(C#CC3(O)CCC3)cc1-2 [Example 368, 9-fluoro-10-[2-(1-hydroxycyclobutyl)ethy-nyl]-N3-methyl-5,6,7,12-tetrahydro-5,7-methanobenzo[c]imidazo[1,2-a]azepine-2,3-dicarboxamide] | 342 nM | 
> 20000 nM | CC(=O)N(Cc1c(C(N)=O)nc2n1C1CC(C1)c1cc(F)c(C#CC(C)(C)O)cc1-2)C(C)C [Example 371, 3-[[acetyl(isopropyl)amino]methyl]-9-fluoro-10-(3-hydroxy-3-methyl-but-1-ynyl)-5,6,7,12-tetrahydro-5,7-methano-benzo[c]imidazo[1,2-a]azepine-2-carboxamide] | 1900 nM | 
> 20000 nM | Cc1nc([C@](C)(O)C#Cc2ccc3c(c2)-c2nc(C(N)=O)sc2[C@@H](F)CO3)no1 |  | 
 | Cc1nc([C@](C)(O)C#Cc2cc3c(cc2F)C2CC(C2)n2cc(C(N)=O)nc2-3)no1 | 792 nM | Ki [3]: 0.003 µM
 | CC(O)(C#Cc1cc2c(cc1F)OCCn1cc(C(N)=O)nc1-2)c1nccs1 (stereo not shown) [Example 144] | 483 nM | 
 | Cc1cc([C@](C)(O)C#Cc2ccc3c(c2)-c2nc(C(N)=O)c([C@@H](O)c4ccnn4C)n2C2CC3C2)no1 [Example 359] | 1200 nM | 
20000 nM | Cc1cc([C@](C)(O)C#Cc2cc3c(cc2F)OC[C@H](N(C)C)c2sc(C(N)=O)nc2-3)no1 (single isomer, unassigned) [Example 257] |  | 
> 20000 nM | Cc1nc([C@](C)(O)C#Cc2ccc3c(c2)-c2nc(C(N)=O)sc2[C@](C)(F)CO3)no1 [Example 469] |  | 
 | CNC(=O)c1c(C(N)=O)nc2n1CCOc1cc(F)c(C#CC(C)(O)COC)cc1-2 (stereo not shown) [Example 108] |  | IC50 [1]: 20000 nM
> 20000 nM | Cc1cc([C@@](C)(O)C#Cc2ccc3c(c2)-n2nc(C(N)=O)cc2[C@H](C)CO3)no1 (racemic) [Example 513] |  | 
> 20000 nM | CN1CC[C@@](O)(C#Cc2ccc3c(c2)-n2nc(C(N)=O)cc2[C@H](F)CO3)C1=O |  | 
 | Cc1cc([C@](C)(O)C#Cc2ccc3c(c2)-c2nc(C(N)=O)c([C@H](O)c4ccnn4C)n2C2CC3C2)no1 | 1200 nM | 
> 20000 nM | CN1CC[C@@](O)(C#Cc2ccc3c(c2)-c2nc(C(N)=O)sc2[C@](O)(CF)CO3)C1=O [Example 465] |  | 
 | CC(C)(O)C#Cc1cc2c(cc1F)OCCn1c-2nc(C(N)=O)c1-c1nc(C2CC2)n[nH]1 | 112 nM | Ki [3]: 0.002 µM
20000 nM | Cc1cc([C@](C)(O)C#Cc2cc3c(cc2F)OC[C@@H](N(C)C)c2sc(C(N)=O)nc2-3)no1 [Example 254] |  | 
 | CC(C)(O)C#Cc1cc2c(cc1F)OCCn1c-2nc(C(N)=O)c1C(O)c1cccc(C(F)(F)F)c1 (stereo not shown) | 344 nM | Ki [3]: 0.019 µM
> 20000 nM | C[C@H]1COc2ccc(C#C[C@]3(O)CCCN(C)C3=O)cc2-c2nc(C(N)=O)sc21 (racemic) [Example 501] |  | 
